Experimental findings from patent publication US9688638B2, “Opioid agonists and uses thereof” (priority 2013, dated 2017) are described below.

Molecules are shown by their SMILES. Values joined by “and” are separate entries in the source; they are usually repeats but may differ in a detail not shown here. Equal entries are not always repeated. Where two headings read alike, the source gives them in different places.

For assay [1], the target named is recombinant human kappa (KOR) opioid receptor (Homo sapiens (Human), UniProt P41145). Nature of the assay: biochemical. In kind it is binding.
The target of a further assay is KOR (Homo sapiens (Human), UniProt P41145). As to the kind of experiment: cAMP accumulation assay, forskolin-stimulated CHO-K1 cells stably expressing KOR. It is filed as cell-based. On the procedure:
Inhibition of cAMP accumulation by select compounds was measured in forskolin-stimulated CHO-K1 cells stably expressing KOR. CHO-K1 cells stably expressing KOR were harvested using Invitrogen Cell Dissociation Buffer, and then centrifuged at 1200 rpm for five minutes. The supernatant was aspirated and cells were resuspended in assay buffer to a density of 4×10^5 cells/mL. 25 μL of cells were added into a white half-area 96 well plate. Fourteen point serial dilutions of test compounds were carried out in assay buffer (PBS with 0.5 mM IBMX). Ketazocine was used as a positive control for each assay. 12.5 μL of compound was added to the cells in duplicate for each test concentration. The cells were then stimulated with 12.5 μL forskolin at a final concentration 20 μM. Cells were incubated for 45 minutes in a 37° C., 5% CO2 water jacketed incubator. CisBio HTRF cAMP assay reagent was used for cAMP quantitation. Two hours after substrate addition, signal at 665/615 nm was measured using the Perkin Elmer Victor X4 HTRF reader. Data analysis was done using GraphPad Prism, sigmoidal dose-response (variable slope) curve fitting.

For assay [2], the system named is Swiss Albino or CD-1 male mice. As to the kind of experiment: Acetic acid writhing (AAW) analgesic assay. Conditions: for inhibition in vivo at 3 mg/kg / inhibition in vivo at 30 mg/kg / inhibition in vivo at 10 mg/kg / inhibition in vivo at 0.3 mg/kg: Mus musculus, 20 min, read-out: AAW % Efficacy. In kind it is in vivo. On the procedure: Approaches for evaluating analgesic activity of a compound of the present invention in vivo include a “writhing test.” Briefly, the compound to be tested is administered [by, for example, injection (e.g., subcutaneous injection)] to the mouse. Thereafter, a 0.5% acetic acid solution is administered (i.p.) to a mouse and the numbers of writhing responses are counted for twenty minutes. Antinociception is quantified as reduction in the number of writhes respective to vehicle.
An analgesic assay was used to determine whether a given compound can reduce and/or prevent visceral pain in mice. The assay utilizes Swiss Albino or CD-1 male mice (5-10 mice per group), each mouse being approximately 0.015-0.030 kg on the study day. Mice were treated according to standard protocols.
The animal was given an intraperitoneal (IP) injection of an irritant (acetic acid) that induces “writhing” which may include: contractions of the abdomen, twisting and turning of the trunk, arching of the back and the extension of the hindlimbs. Mice are given a single IP injection (0.1 mL/10 g bodyweight) of a 0.5% acetic acid solution. After the injection the animals were returned to their observation enclosure and their behavior was observed. Contractions were counted between 0 and 20 minutes after the injection. The animals were used once. In certain instances, the test articles were administered at multiple doses to determine a dose response curve.
Table 4 provides the results for certain compounds of the present invention that were administered subcutaneously. Table 5 provides the results for certain compounds of the present invention that were administered orally.

Setting [3] is: inhibition of cAMP accumulation, forskolin 20 μM, read-out: EC50 cAMP (nM)-KOR.

Regarding `COCCOCCOCCOCCOCCNc1ccc2c(c1)[C@]1(C)CCN(CC3CC3)[C@H](C2=O)[C@@H]1C` [Compound 2, (2S,6R,11R)-3-(Cyclopropylmethyl)-6,11-dimethyl-8-(2,5,8,11,14-pentaoxahexadecan-16-ylamino)-3,4,5,6-tetrahydro-2,6-methano-3-benzazocin-1(2H)-one], in assay [1], the IC50 was 2380 nM and the Ki worked out at 549 nM. Also, the concentration giving a half-maximal response (EC50) at KOR (setting [3]) is 139 nM.

In the case of `COCCOCCOCCOCCOCCOCCOCCNc1ccc2c(c1)[C@]1(C)CCN(CC3CC3)[C@H](C2=O)[C@@H]1C` [Compound 3, (2S,6R,11R)-3-(Cyclopropylmethyl)-8-(2,5,8,11,14,17,20-heptaoxadocosan-22-ylamino)-6,11-dimethyl-3,4,5,6-tetrahydro-2,6-methano-3-benzazocin-1(2H)-one], the Ki in assay [1] (Cheng Prusoff correction, [3H]Diprenorphine 1 nM, CHO-K1 membranes, read-out: Kappa receptor binding Ki) was determined as 769 nM. Moreover, the half-inhibitory concentration (IC50) in assay [1] ([3H]Diprenorphine 1 nM, CHO-K1 membranes, read-out: Kappa receptor binding IC50) worked out at 3330 nM. In addition, on KOR (setting [3]), the EC50 stood at 122 nM.

As for `COCCOCCOCCOCCOCCOCCOCCOc1ccc2c(c1)[C@]1(C)CCN(CC3CC3)[C@H](C2=O)[C@@H]1C` [Compound 6, (2S,6R,11R)-3-(Cyclopropylmethyl)-8-(2,5,8,11,14,17,20-heptaoxadocosan-22-yloxy)-6,11-dimethyl-3,4,5,6-tetrahydro-2,6-methano-3-benzazocin-1(2H)-one], in assay [1], the half-maximal inhibitory concentration (IC50) was 6080 nM and the inhibition constant (Ki) stood at 1400 nM. The compound further registered a concentration for a half-maximal effect (EC50) on KOR of 357 nM.

Take `COCCOCCOCCOCCOCCOc1ccccc1Nc1ccc2c(c1)[C@]1(C)CCN(CC3CC3)[C@H](C2=O)[C@@H]1C` [Compound 7, (2S,6R,11R)-8-((2-(2,5,8,11,14-pentaoxahexadecan-16-yloxy)phenyl)amino)-3-(cyclopropylmethyl)-6,11-dimethyl-3,4,5,6-tetrahydro-2,6-methanobenzo[d]azocin-1(2H)-one]: the inhibition in vivo at 3 mg/kg in assay [2] (sc, subcutaneous, 3 mg/kg) was 38.8%. In assay [2] (sc, subcutaneous), the inhibition in vivo at 30 mg/kg worked out at 84.8%. Also, the “AAW percent efficacy, outlier data removed” value (“AAW percent efficacy” below) in assay [2] (subcutaneous, 3 mg/kg) is listed as 31.95.

Turning to `COCCOCCOCCOCCOCCOc1cccc(Nc2ccc3c(c2)[C@]2(C)CCN(CC4CC4)[C@H](C3=O)[C@@H]2C)c1` [Compound 8, (2S,6R,11R)-8-((3-(2,5,8,11,14-pentaoxahexadecan-16-yloxy)phenyl)amino)-3-(cyclopropylmethyl)-6,11-dimethyl-3,4,5,6-tetrahydro-2,6-methanobenzo[d]azocin-1(2H)-one], the inhibition in vivo at 3 mg/kg in assay [2] (sc, subcutaneous, 3 mg/kg) stood at 38%. In assay [2] (sc, subcutaneous), the inhibition in vivo at 30 mg/kg came to 100%. For the same compound, the “AAW percent efficacy” value in assay [2] (subcutaneous, 3 mg/kg) was 31.07.

As to `COCCOCCOCCOCCOCCOc1ccc(Nc2ccc3c(c2)[C@]2(C)CCN(CC4CC4)[C@H](C3=O)[C@@H]2C)cc1` [Compound 9, (2S,6R,11R)-8-((4-(2,5,8,11,14-pentaoxahexadecan-16-yloxy)phenyl)amino)-3-(cyclopropylmethyl)-6,11-dimethyl-3,4,5,6-tetrahydro-2,6-methanobenzo[d]azocin-1(2H)-one], the inhibition in vivo at 10 mg/kg in assay [2] (po, oral, 10 mg/kg) amounted to 38.5%; in assay [2] (sc, subcutaneous, 10 mg/kg), 95.4%. For the same compound, the inhibition in vivo at 0.3 mg/kg in assay [2] (sc, subcutaneous, 0.3 mg/kg) was 13.3%. Besides, the inhibition in vivo at 3 mg/kg in assay [2] (sc, subcutaneous, 3 mg/kg) amounted to 67.8%. Moreover, in assay [2] (sc, subcutaneous), the inhibition in vivo at 30 mg/kg came to 99.2%. For the same compound, the “AAW percent efficacy” value in assay [2] (subcutaneous, 0.3 mg/kg) was 13.18; in assay [2] (subcutaneous, 3 mg/kg) it was 64.20 and 57.09; in assay [2] (subcutaneous, 10 mg/kg), 94.93.

Regarding `COCCOCCOCCOCCOCCNc1ccc(Nc2ccc3c(c2)[C@]2(C)CCN(CC4CC4)[C@H](C3=O)[C@@H]2C)cc1` [Compound 10, (2S,6R,11R)-8-((4-(2,5,8,11,14-pentaoxahexadecan-16-ylamino)phenyl)amino)-3-(cyclopropylmethyl)-6,11-dimethyl-3,4,5,6-tetrahydro-2,6-methanobenzo[d]azocin-1(2H)-one], the inhibition in vivo at 30 mg/kg in assay [2] (sc, subcutaneous) was 100%. In assay [2] (subcutaneous, 3 mg/kg), the “AAW % Efficacy” value is 34.0% and the “AAW percent efficacy” value is 26.63.

As for `COCCOCCOCCOCCOCCNc1cccc(Nc2ccc3c(c2)[C@]2(C)CCN(CC4CC4)[C@H](C3=O)[C@@H]2C)c1` [Compound 11, (2S,6R,11R)-8-((3-(2,5,8,11,14-pentaoxahexadecan-16-ylamino)phenyl)amino)-3-(cyclopropylmethyl)-6,11-dimethyl-3,4,5,6-tetrahydro-2,6-methanobenzo[d]azocin-1(2H)-one], the inhibition in vivo at 10 mg/kg worked out at 31.2% in assay [2] (po, oral, 10 mg/kg) and 99.1% in assay [2] (sc, subcutaneous, 10 mg/kg). Besides, in assay [2] (sc, subcutaneous, 0.3 mg/kg), the inhibition in vivo at 0.3 mg/kg is 21.1%. In assay [2] (sc, subcutaneous, 3 mg/kg), the inhibition in vivo at 3 mg/kg worked out at 62.2%. In addition, in assay [2] (sc, subcutaneous), the inhibition in vivo at 30 mg/kg amounted to 100%. The “AAW percent efficacy” value in assay [2] (subcutaneous, 0.3 mg/kg) was 12.30; in assay [2] (subcutaneous, 3 mg/kg), 56.21 and 60.30; in assay [2] (subcutaneous, 10 mg/kg) it was 99.00.

In the case of `COCCOCCOCCOCCOCCNc1nc2cc3c(cc2s1)C(=O)[C@@H]1[C@H](C)[C@@]3(C)CCN1CC1CC1` [Compound 13, (6S,10R,12R)-2-(2,5,8,11,14-pentaoxahexadecan-16-ylamino)-7-(cyclopropylmethyl)-10,12-dimethyl-7,8,9,10-tetrahydro-6,10-methanothiazolo[4′,5′:4,5]benzo[1,2-d]azocin-5(6H)-one], in assay [2] (sc, subcutaneous, 10 mg/kg), the inhibition in vivo at 10 mg/kg was 40.2%.

Take `COCCOCCN1CC[C@@]2(C)c3cc(O)ccc3C(=O)[C@@H]1[C@@H]2C` [Compound 14, (2S,6R,11R)-8-hydroxy-3-(2-(2-methoxyethoxy)ethyl)-6,11-dimethyl-3,4,5,6-tetrahydro-2,6-methanobenzo[d]azocin-1(2H)-one]: the inhibition in vivo at 10 mg/kg in assay [2] (sc, subcutaneous, 10 mg/kg) turned out to be 13.2%.

Take `COCCOCC(=O)Nc1ccc2c(c1)[C@]1(C)CCN(CC3CC3)[C@H](C2=O)[C@@H]1C` [Compound 15, N-((2S,6R,11R)-3-(cyclopropylmethyl)-6,11-dimethyl-1-oxo-1,2,3,4,5,6-hexahydro-2,6-methanobenzo[d]azocin-8-yl)-2-(2-methoxyethoxy)acetamide]: in assay [2] (sc, subcutaneous, 10 mg/kg), the inhibition in vivo at 10 mg/kg was found to be 100%.

`COCCNC(=O)c1ccc2c(c1)[C@]1(C)CCN(CC3CC3)[C@H](C2=O)[C@@H]1C` [Compound 16, (2S,6R,11R)-3-(cyclopropylmethyl)-N-(2-methoxyethyl)-6,11-dimethyl-1-oxo-1,2,3,4,5,6-hexahydro-2,6-methanobenzo[d]azocine-8-carboxamide]: the inhibition in vivo at 10 mg/kg in assay [2] (sc, subcutaneous, 10 mg/kg) was 26.4%.

With `COCCOCC(=O)NCc1ccc2c(c1)[C@]1(C)CCN(CC3CC3)C(C2=O)[C@@H]1C` [Compound 17, N,N-(((2S,6R,11R)-3-(cyclopropylmethyl)-6,11-dimethyl-1-oxo-1,2,3,4,5,6-hexahydro-2,6-methanobenzo[d]azocin-8-yl)methyl)-2-(2-methoxyethoxy)acetamide], the inhibition in vivo at 10 mg/kg in assay [2] (sc, subcutaneous, 10 mg/kg) is 23.3%.

As to `COCCOCCNCc1ccc2c(c1)[C@]1(C)CCN(CC3CC3)[C@H](C2=O)[C@@H]1C` [Compound 18, (2S,6R,11R)-3-(cyclopropylmethyl)-8-(((2-(2-methoxyethoxy)ethyl)amino)methyl)-6,11-dimethyl-3,4,5,6-tetrahydro-2,6-methanobenzo[d]azocin-1(2H)-one], the inhibition in vivo at 10 mg/kg in assay [2] (sc, subcutaneous, 10 mg/kg) came to 31.9%.

Turning to `COCCOCCOCCOCCOCCOc1c(O)ccc2c1[C@]1(C)CCN(CC3CC3)[C@H](C2=O)[C@@H]1C` [Compound 19, (2S,6R,11R)-7-(2,5,8,11,14-pentaoxahexadecan-16-yloxy)-3-(cyclopropylmethyl)-8-hydroxy-6,11-dimethyl-3,4,5,6-tetrahydro-2,6-methanobenzo[d]azocin-1(2H)-one], the inhibition in vivo at 10 mg/kg in assay [2] (sc, subcutaneous, 10 mg/kg) was determined as 31.6%.

In the case of `C[C@H]1[C@H]2C(=O)c3cc4sc(N)nc4cc3[C@]1(C)CCN2CC1CC1` [Step 1 of 13, (6S,10R,12R)-2-amino-7-(cyclopropylmethyl)-10,12-dimethyl-7,8,9,10-tetrahydro-6,10-methanothiazolo[4′,5′:4,5]benzo[1,2-d]azocin-5(6H)-one], the inhibition in vivo at 10 mg/kg in assay [2] (sc, subcutaneous, 10 mg/kg) worked out at 100%.
